# Test: Thermodynamic stability of the solid forms of compound (I)
# Assay type: physicochemical
# Conditions: compared with the other solid forms of compound (I)
compound,measurement,value
"CC(C)(O)c1cc2nn(CCS(C)(=O)=O)cc2cc1NC(=O)c1cccc(C(F)(F)F)n1 [Polymorphic form B, N-{6-(2-Hydroxypropan-2-yl)-2-[2-(methylsulphonyl)ethyl]-2H-indazol-5-yl}-6-(trifluoromethyl)pyridine-2-carboxamide]",thermodynamic stability among solid forms,thermodynamically stable form
